From ChEMBL document CHEMBL5465560, “Selectivity Literature for EUbOPEN Chemogenomic Library” (2024)

Assays:
[1] = molecular target: T1, Mitogen-activated protein kinase 15 (Homo sapiens) (UniProt Q8TD08); assay: Selectivity interaction (KinomeScan (DiscoverX)) EUB0001079a MAPK15; conditions: at 1 µM
T1 sequence (whole entry): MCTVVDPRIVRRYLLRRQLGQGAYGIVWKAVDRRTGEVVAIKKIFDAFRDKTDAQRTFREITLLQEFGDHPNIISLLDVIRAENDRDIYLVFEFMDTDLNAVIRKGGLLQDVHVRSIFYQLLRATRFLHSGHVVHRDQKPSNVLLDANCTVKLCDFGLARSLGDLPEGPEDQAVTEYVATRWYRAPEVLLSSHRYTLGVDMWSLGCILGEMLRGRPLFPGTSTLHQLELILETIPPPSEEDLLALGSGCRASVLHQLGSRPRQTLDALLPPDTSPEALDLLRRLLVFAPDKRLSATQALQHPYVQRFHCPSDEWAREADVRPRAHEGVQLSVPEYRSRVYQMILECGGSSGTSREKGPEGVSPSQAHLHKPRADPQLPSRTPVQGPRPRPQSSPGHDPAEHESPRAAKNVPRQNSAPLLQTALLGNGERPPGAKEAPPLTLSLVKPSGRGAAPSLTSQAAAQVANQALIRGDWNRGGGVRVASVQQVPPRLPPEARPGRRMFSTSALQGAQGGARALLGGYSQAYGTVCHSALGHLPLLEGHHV

[2] = tested on: Leucine-rich repeat serine/threonine-protein kinase 2 (Homo sapiens), Q5S007 [G2019S]; conditions: at 10 µM
[3] = molecular target: Tyrosine-protein kinase Fgr (Homo sapiens) (UniProt P09769); assay: Selectivity interaction (ActivX KiNativ screen (ex vivo kinase selectivity in human PBMCs)) EUB0001619a FGR; format: cell-based; conditions: PBMC, at 1 µM
[4] = molecular target: T2, Serine/threonine-protein kinase RIO1 (Homo sapiens) (UniProt Q9BRS2); assay: Selectivity interaction (KinomeScan (DiscoverX)) EUB0001619a RIOK1; conditions: at 1 µM
T2 sequence (whole entry): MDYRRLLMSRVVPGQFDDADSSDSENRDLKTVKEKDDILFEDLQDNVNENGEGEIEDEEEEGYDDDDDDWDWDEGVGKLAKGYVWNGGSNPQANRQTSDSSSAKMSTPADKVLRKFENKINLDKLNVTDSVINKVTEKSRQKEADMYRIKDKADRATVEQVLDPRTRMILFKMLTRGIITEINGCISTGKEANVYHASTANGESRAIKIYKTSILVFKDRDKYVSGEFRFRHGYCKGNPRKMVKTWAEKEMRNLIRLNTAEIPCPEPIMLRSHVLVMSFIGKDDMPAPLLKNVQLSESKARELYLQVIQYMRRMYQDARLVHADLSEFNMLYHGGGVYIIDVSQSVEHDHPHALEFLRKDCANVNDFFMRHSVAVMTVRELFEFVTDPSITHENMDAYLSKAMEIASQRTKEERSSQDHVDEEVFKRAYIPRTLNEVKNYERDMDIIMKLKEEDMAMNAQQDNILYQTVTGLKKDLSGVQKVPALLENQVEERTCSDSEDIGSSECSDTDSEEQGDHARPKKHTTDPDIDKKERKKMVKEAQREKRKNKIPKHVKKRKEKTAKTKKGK

[5] = molecular target: Ribosomal protein S6 kinase alpha-3 (Homo sapiens, UniProt P51812); assay: Selectivity interaction (ActivX KiNativ screen (ex vivo kinase selectivity in human PBMCs)) EUB0001619a RPS6KA3; format: cell-based; conditions: PBMC, at 1 µM
[6] = molecular target: Serine/threonine-protein kinase 10 (Homo sapiens) (UniProt O94804); assay: Selectivity interaction (ActivX KiNativ screen (ex vivo kinase selectivity in human PBMCs)) EUB0001619a STK10; format: cell-based; conditions: PBMC, at 1 µM
[7] = molecular target: Non-receptor tyrosine-protein kinase TYK2 (Homo sapiens, UniProt P29597); assay: Selectivity interaction (KinomeScan (DiscoverX)) EUB0000618a TYK2; conditions: at 10 µM
[8] = molecular target: Serine/threonine-protein kinase PAK 6 (Homo sapiens) (UniProt Q9NQU5); assay: Selectivity interaction (KinomeScan (DiscoverX)) EUB0000092b PAK6; conditions: at 10 µM
[9] = molecular target: RAC-beta serine/threonine-protein kinase (Homo sapiens) (UniProt P31751); assay: Selectivity interaction (KinomeScan (DiscoverX)) EUB0000092b AKT2; conditions: at 10 µM
[10] = molecular target: T3, Ephrin type-B receptor 6 (Homo sapiens) (UniProt O15197); assay: Selectivity interaction (Ambit KINOMEscan and KiNATiv profiling in Jurkat cells) EUB0000090b EPHB6; format: cell-based; conditions: at 1 µM
T3 sequence (whole entry): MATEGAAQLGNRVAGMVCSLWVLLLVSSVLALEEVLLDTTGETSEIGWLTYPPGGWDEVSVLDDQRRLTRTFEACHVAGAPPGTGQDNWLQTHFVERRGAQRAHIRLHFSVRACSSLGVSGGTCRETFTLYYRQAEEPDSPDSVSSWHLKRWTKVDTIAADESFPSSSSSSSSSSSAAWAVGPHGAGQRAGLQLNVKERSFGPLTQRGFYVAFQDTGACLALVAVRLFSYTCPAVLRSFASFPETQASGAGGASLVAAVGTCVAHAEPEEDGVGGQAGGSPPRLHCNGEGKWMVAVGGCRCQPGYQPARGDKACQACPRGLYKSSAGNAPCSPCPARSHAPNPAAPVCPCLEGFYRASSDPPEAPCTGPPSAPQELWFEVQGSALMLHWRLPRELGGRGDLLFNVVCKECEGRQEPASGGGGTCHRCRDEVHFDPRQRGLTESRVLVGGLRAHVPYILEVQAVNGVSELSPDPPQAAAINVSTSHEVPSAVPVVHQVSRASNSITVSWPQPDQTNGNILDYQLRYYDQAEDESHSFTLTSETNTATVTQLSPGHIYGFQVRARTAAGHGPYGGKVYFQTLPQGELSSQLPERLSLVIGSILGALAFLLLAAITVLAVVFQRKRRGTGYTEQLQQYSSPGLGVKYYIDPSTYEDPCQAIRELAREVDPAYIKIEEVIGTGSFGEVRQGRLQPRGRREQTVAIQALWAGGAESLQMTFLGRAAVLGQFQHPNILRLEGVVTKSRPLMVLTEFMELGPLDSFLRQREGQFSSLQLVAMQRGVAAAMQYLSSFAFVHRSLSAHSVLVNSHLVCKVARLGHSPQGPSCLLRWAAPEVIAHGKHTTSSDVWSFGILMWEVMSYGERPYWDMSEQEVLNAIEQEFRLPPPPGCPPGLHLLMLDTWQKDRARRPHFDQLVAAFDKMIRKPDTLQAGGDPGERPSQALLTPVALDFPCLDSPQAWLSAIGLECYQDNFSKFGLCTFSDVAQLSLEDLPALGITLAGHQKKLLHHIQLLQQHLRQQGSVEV

Chain of RAC-beta serine/threonine-protein kinase (Homo sapiens) (P31751 whole entry): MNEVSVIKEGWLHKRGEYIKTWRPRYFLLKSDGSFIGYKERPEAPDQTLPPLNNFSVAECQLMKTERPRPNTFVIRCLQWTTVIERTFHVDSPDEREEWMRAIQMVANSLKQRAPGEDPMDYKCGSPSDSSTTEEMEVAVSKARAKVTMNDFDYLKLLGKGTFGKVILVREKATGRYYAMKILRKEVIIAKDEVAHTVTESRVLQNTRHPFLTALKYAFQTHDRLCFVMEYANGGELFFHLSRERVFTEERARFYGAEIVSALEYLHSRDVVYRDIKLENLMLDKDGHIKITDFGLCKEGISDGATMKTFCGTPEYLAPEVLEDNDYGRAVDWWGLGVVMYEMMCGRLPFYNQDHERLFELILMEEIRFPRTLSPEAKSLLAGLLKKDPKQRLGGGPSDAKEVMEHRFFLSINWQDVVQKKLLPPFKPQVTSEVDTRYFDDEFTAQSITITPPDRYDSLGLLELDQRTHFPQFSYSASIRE
Chain of Serine/threonine-protein kinase 10 (Homo sapiens) (O94804 whole entry, looked up): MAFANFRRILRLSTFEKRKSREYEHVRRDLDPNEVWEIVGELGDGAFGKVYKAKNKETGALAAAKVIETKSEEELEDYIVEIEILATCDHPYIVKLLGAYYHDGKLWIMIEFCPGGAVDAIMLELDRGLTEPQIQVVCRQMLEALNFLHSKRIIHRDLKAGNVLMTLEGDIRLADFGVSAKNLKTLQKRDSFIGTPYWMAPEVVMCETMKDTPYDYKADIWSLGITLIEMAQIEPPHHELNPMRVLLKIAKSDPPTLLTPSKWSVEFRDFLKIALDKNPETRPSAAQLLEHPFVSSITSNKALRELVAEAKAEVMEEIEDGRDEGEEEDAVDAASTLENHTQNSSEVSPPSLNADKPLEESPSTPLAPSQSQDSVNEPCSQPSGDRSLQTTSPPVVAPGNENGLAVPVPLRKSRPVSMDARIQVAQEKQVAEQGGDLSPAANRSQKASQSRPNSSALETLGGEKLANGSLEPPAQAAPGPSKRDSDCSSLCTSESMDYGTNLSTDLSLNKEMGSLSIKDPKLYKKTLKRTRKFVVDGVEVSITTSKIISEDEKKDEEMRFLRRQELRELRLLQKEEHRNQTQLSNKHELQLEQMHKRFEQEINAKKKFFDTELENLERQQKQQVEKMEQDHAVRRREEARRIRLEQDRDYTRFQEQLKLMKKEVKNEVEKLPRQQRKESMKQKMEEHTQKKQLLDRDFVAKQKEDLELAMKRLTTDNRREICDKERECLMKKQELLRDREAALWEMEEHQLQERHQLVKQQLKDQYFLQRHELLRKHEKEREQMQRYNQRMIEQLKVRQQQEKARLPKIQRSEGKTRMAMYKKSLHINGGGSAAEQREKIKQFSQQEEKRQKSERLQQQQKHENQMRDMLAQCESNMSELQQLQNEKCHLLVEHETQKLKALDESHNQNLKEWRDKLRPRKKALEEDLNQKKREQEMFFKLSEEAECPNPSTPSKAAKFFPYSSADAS
Chain of Leucine-rich repeat serine/threonine-protein kinase 2 (Homo sapiens), Q5S007 [G2019S] (Q5S007 whole entry G2019S): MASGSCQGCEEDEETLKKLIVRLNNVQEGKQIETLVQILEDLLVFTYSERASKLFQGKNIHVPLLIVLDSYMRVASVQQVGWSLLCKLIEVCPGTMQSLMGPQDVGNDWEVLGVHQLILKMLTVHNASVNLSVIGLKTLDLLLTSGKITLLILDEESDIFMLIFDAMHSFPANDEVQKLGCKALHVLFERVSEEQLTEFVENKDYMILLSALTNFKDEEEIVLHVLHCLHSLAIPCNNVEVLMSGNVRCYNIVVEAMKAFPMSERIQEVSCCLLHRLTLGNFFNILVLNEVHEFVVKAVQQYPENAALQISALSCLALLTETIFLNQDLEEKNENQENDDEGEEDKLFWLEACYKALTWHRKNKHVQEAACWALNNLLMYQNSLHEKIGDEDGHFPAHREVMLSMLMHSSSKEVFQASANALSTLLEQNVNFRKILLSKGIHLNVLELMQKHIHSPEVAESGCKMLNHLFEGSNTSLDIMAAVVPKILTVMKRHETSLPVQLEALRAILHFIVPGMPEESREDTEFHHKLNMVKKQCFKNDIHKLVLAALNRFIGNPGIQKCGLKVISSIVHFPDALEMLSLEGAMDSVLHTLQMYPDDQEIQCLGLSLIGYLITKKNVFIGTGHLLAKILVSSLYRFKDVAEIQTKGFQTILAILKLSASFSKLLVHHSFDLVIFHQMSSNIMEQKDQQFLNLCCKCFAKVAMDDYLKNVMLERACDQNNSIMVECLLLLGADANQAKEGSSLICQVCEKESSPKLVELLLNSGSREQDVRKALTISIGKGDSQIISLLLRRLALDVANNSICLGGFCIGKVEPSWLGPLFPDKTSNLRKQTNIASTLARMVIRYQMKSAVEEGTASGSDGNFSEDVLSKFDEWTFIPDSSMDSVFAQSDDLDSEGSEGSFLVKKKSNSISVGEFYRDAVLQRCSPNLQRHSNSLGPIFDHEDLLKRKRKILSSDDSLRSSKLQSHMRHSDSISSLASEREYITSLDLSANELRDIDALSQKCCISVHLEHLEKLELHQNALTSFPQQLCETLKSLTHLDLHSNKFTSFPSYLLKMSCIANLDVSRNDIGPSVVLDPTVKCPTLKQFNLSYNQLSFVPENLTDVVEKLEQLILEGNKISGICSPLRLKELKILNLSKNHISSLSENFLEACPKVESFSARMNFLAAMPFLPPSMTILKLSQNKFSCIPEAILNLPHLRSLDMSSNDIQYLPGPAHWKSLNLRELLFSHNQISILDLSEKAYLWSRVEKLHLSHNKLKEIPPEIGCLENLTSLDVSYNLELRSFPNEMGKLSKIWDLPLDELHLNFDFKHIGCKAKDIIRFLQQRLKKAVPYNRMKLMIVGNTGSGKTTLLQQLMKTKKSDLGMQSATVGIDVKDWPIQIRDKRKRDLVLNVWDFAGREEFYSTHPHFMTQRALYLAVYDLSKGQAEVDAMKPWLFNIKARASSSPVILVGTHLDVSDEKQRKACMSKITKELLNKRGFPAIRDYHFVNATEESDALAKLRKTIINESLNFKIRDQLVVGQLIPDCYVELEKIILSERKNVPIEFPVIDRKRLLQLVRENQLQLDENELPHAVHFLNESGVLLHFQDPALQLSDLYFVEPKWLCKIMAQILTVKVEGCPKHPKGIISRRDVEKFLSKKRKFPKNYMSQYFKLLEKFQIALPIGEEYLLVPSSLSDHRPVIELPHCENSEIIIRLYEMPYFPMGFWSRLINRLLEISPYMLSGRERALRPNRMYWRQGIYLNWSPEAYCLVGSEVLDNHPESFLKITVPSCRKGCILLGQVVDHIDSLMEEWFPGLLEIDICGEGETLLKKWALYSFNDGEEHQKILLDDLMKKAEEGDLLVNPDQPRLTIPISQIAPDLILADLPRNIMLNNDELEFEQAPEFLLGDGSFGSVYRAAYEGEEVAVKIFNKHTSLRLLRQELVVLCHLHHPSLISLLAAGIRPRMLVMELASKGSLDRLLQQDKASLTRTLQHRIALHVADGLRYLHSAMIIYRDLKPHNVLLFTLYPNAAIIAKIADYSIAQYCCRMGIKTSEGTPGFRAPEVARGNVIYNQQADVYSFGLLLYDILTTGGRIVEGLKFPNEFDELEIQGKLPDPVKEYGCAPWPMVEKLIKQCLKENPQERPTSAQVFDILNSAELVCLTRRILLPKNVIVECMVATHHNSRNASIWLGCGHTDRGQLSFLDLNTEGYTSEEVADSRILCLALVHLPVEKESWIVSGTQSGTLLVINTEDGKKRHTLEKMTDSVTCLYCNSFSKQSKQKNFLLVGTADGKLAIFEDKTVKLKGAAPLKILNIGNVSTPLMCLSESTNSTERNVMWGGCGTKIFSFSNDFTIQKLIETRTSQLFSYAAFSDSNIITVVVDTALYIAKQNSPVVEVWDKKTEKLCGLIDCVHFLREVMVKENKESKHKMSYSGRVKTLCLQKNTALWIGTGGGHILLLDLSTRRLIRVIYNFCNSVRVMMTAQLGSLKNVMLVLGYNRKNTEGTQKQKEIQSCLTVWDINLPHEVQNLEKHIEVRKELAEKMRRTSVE
Chain of Serine/threonine-protein kinase PAK 6 (Homo sapiens) (Q9NQU5 whole entry, looked up): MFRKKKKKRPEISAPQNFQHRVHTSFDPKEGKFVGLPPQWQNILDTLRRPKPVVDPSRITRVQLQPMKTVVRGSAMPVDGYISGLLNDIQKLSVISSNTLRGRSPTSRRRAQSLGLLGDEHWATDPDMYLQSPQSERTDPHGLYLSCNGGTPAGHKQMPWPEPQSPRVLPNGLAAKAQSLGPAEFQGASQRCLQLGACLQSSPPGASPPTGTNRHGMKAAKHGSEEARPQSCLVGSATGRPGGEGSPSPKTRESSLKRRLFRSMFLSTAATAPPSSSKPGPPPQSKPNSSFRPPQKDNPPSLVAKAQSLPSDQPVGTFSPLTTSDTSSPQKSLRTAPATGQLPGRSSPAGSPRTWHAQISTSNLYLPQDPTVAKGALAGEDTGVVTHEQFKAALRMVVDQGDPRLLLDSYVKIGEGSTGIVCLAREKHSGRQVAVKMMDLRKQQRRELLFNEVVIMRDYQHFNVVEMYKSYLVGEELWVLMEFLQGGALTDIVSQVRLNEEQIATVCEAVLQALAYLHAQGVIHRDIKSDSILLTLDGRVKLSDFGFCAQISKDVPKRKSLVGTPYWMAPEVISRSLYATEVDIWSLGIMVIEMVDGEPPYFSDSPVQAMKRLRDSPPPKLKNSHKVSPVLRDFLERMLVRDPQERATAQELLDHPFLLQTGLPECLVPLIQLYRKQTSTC

**Q.** Nc1cnc(N2CCc3cc(S(=O)(=O)Nc4c(F)cc(Cl)cc4F)cc(N4CCCC4=O)c32)nc1 [TP-020n] was tested. Which % of control [1] did it give?
**A.** Its % of control is 84%.

**Q.** Which % of control [2] does the source give for Cc1cc([C@@H](C)Nc2ccccc2C(=O)O)c2nc(N3CCOCC3)cc(=O)n2c1 [AZD-6482] here?
**A.** The % of control was 100%.

**Q.** With N#Cc1cccc(-c2c[nH]c3ncnc(N4CCOCC4)c23)c1 as the molecule, how does the % of inhibition [3] read?
**A.** Its % of inhibition is -34%.

**Q.** And the % of control [4]?
**A.** Its % of control is 38%.

**Q.** And the % of inhibition [5]?
**A.** The % of inhibition was -3%.

**Q.** And the % of inhibition [6]?
**A.** Its % of inhibition is 79%.

**Q.** O[C@H]1CC[C@H](Nc2ncc3nc(Nc4c(F)cc(F)cc4F)n([C@H]4CCOC4)c3n2)CC1 was tested. Which % of control [7] did it give?
**A.** The % of control was 81%.

**Q.** How did the % of control [8] turn out when CCC(=O)N1CCN(c2ccc(-n3c(=O)ccc4cnc5ccc(-c6cnc7ccccc7c6)cc5c43)cc2C(F)(F)F)CC1 was run?
**A.** Its % of control is 77%.

**Q.** What about the % of control [9] of the same molecule?
**A.** Its % of control is 100%.

**Q.** For CN(C)C/C=C/C(=O)Nc1ccc(C(=O)N2CCCC(Nc3ncc(Cl)c(-c4c[nH]c5ccccc45)n3)C2)cc1 (stereo not given), which % of control [10] is on record?
**A.** The % of control was 76%.
